Here are results for three compounds from patent publication US5413993A, “Method for the treatment of narcotic withdrawal symptoms in animals using lipopolysaccharides” (priority 1992, dated 1995).

For series [1], the system named is jumping, a severer withdrawal symptom. Conditions: intravenous, 0.1-0.10 mg/kg.
A short description of series [2]: Convulsions on intravenous clonidine (inventors' finding). The note with it: 10 mg/kg. Format: in vivo.
Series [3] deals with withdrawal body shake. Conditions: intraperitoneal, 0.16 mg/kg; cited from earlier work.
For series [4] the following is noted: in vivo; cited from earlier work.
The conditions of series [5]: in vivo; cited from earlier work. The source holds these as a separate data set.

For the compound `Clc1cccc(Cl)c1N=C1NCCN1` [Clonidine, clonidine], the suppression of jumping result in series [1] is “fails to suppress jumping”. Further, in series [2], the convulsions result was “causes convulsions”. The “suppression of withdrawal body shake” value in series [3] is “suppress withdrawal body shake”.

For `CCC(=O)C(CC(C)N(C)C)(c1ccccc1)c1ccccc1` (centres unmarked) [Methadone], in series [4], the dependence to itself result was “cause dependence to itself”.

On to `C[C@]12N[C@H](Cc3ccccc31)c1ccccc12` [Dizocilipine, dizocilpine], for which the “difference between toxic and effective doses” value in series [5] was “extremely small difference between its toxic and effective doses”.
